From publication PMC8167039, “A Comparative Study of Human and Zebrafish Pregnane X Receptor Activities of Pesticides and Steroids Using In Vitro Reporter Gene Assays” (Frontiers in Endocrinology, 2021)
“Also recorded” adds a separate entry of the source. Where two headings read alike, the source gives them in different places.

Experiments:
[1] = target: T1, hPXR (Homo sapiens, UniProt O75469); assay: HG5LN Gal4-hPXR luciferase reporter gene assay, agonism
T1 sequence (O75469 146-433 limits assumed): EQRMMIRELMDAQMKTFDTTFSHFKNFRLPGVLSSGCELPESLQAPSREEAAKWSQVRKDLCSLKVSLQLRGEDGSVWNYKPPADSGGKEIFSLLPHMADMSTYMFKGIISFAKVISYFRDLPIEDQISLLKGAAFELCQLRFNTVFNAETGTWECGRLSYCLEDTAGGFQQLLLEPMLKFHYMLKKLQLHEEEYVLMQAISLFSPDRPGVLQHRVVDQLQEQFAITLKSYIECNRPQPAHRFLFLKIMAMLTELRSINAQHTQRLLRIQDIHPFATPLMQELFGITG
Procedure: (§1) The cell lines used in this study are listed in Supplementary Table 3 . The HG5LN, HG5LN Gal4-hPXR and HG5LN Gal4-zfPXR cell lines were previously described ([19]). Briefly, HeLa cells stably transfected with the GAL4RE5-βGlobin-Luc-SVNeo plasmid (HG5LN cell line) ([15]). HG5LN cells were stably transfected with the pSG5-GAL4(DBD)-hPXR(LBD)-puro or pSG5-GAL4(DBD)-zfPXR(LBD)-puro plasmids.
(§2) HG5LN cells were cultured in Dulbecco’s Modified Eagle Medium: Nutrient Mixture F-12 (D-MEM/F-12) containing phenol red and 1 g/L glucose and supplemented with 5% fetal bovine serum, 100 units/mL of penicillin and 100 µg/mL of streptomycin supplemented with 1 mg/mL geneticin in a 5% CO2 humidified atmosphere at 37°C. HG5LN GAL4-hPXR and GAL4-zfPXR were cultured in the same culture medium supplemented with 0.5 µg/mL puromycin.
(§3) The ability of chemicals to modulate the hPXR and zfPXR was investigated in HG5LN, HG5LN-hPXR, HG5LN-zfPXR, and ZFL-zfPXR cell lines after exposure to serial dilutions of the compounds and measurement of luciferase activity. […] Briefly, cells were seeded in 96-well white opaque flat bottom microplates at 0.5 10^5 cells per well in culture medium. […] Cells were then exposed to a concentration range of the compounds by using an automated workstation (Biomek 3000, Beckman Coulter). The final concentration of DMSO in the well never exceeds 0.1% (v/v). After 16h of exposure, medium was removed and 50 µL of test medium containing 0.3 mM D-luciferin were added per well. After 5 min, the production of light was assessed in living cells using microplate reader (MicroBeta, PerkinElmer SAS, Courtabœuf, France).
(§4) In the transactivation assay, each compound was tested at various concentrations in three independent experiments at least. For each experiment, tests were performed in quadruplicates for each concentration, and data are expressed by means values with standard deviations. […] This allowed to determine EC50 and IC50 values of tested chemicals.

[2] = target: T2, zfPXR (Danio rerio, UniProt A5WYG8); assay: HG5LN Gal4-zfPXR luciferase reporter gene assay, agonism; assay type: cell-based, zebrafish; parameters: Emax: dose or concentration left out as unconfirmed; details: for Emax: HG5LN, read-out: zfPXR agonism Max
T2 sequence (A5WYG8 entry or part of it): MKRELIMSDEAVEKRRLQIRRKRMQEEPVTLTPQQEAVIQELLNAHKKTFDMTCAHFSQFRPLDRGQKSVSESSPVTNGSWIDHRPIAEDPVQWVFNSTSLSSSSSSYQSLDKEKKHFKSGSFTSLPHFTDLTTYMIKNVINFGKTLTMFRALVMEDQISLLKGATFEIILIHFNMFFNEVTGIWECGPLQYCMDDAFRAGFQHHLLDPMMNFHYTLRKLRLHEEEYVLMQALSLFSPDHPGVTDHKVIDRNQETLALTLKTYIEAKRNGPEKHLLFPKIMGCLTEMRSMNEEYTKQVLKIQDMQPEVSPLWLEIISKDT
Procedure: as §1, §2, §3, §4

[3] = target: T2, zfPXR; assay: HG5LN Gal4-zfPXR luciferase reporter gene assay, antagonism (coexposure with clotrimazole); assay type: cell-based, zebrafish
Procedure: as §1, §2, §3, §4

[4] = target: T2, zfPXR; assay: cell-based
Procedure: as §3, §4

[5] = HG5LN-zfPXR cells, 16h exposure, n.a. = not active, read-out: zfPXR agonism EC50
[6] = HG5LN-hPXR, maximal activity at 10 µM, % of maximal induced by 3 µM SR 12813, DMSO 19 ± 6
[7] = HG5LN, read-out: zfPXR antagonism Min
[8] = read-out: hPXR agonism EC50, HG5LN-hPXR cells, 16h exposure, n.a. = not active
[9] = read-out: zfPXR antagonism IC50

SMILES	EC50 [1] [µM]	hPXR agonism Max [1, 6] [%]	EC50 [2] [nM]	Emax [2] [%]	also measured
C#C[C@]1(O)CC[C@H]2[C@@H]3CCC4=CCCC[C@@H]4[C@H]3CC[C@@]21C [Lynestrenol, reference compound]	–	–	–	–	hPXR agonism Max [1]: 30%; EC50 [2, 5]: 230 ± 10 nM
COCC(=O)N(c1c(C)cccc1C)C(C)C(=O)OC (stereo not drawn) [Metalaxyl]	31 ± 2.6	40	20000 ± 3100	42	–
CCc1cccc(C)c1N(C(=O)CCl)C(C)COC (stereo not drawn) [Metolachlor]	0.68 ± 0.07	69	630 ± 30	115	–
CC#C[C@]1(O)CC[C@H]2[C@@H]3CCC4=CC(=O)CCC4=C3[C@@H](c3ccc(N(C)C)cc3)C[C@@]21C [Mifepristone, reference compound]	–	–	–	–	IC50 [3]: 0.08 ± 0.003 µM; IC50 [4]: 60 ± 4 nM; zfPXR antagonism Min ([4]; ZFL-zfPXR, compounds marked *, not tested above 3 µM, coexposure with 0.03 µM clotrimazole, % of maximal induced by 1 µM clotrimazole): 5%
CCOc1cc(Oc2ccc(C(F)(F)F)cc2Cl)ccc1[N+](=O)[O-] [Oxyfluorfen]	3 ± 0.1	86	–	–	IC50 [3]: 10 ± 1.2 µM; remaining activity at 10 µM [3, 7]: 56%
CCCC(Cn1cncn1)c1ccc(Cl)cc1Cl (stereo not drawn) [Penconazol]	–	42	1500 ± 100	51	–
CCN(CC)c1nc(C)cc(OP(=S)(OC)OC)n1 [Pirimiphos-methyl]	22 ± 23	69	1100 ± 100	103	–
CC(=O)[C@H]1[C@H](C#N)C[C@H]2[C@@H]3CC=C4C[C@@H](O)CC[C@]4(C)[C@H]3CC[C@@]21C [Pregnenolone16α-carbonitrile, reference compound]	–	32	–	–	effect on hPXR transcriptional activity (in words) ([1]; HG5LN Gal-hPXR cells): partially activated; EC50 [1, 8]: 22 ± 9.7 µM; effect on zfPXR transcriptional activity (in words) ([2]; HG5LN Gal-zfPXR cells): did not activate; also recorded: do not modulate
CCCOCCN(C(=O)CCl)c1c(CC)cccc1CC [Pretilachlor]	0.18 ± 0.02	–	580 ± 70	–	hPXR agonism Max [1]: 94%
CCCN(CCOc1c(Cl)cc(Cl)cc1Cl)C(=O)n1ccnc1 [Prochloraz]	1.8 ± 0.1	–	–	–	hPXR agonism Max [1]: 71%; IC50 [3]: 11 ± 5.6 µM
CC(=O)[C@H]1CC[C@H]2[C@@H]3CCC4=CC(=O)CC[C@]4(C)[C@H]3CC[C@]12C [Progesterone, reference compound]	9.1 ± 2.2	–	–	–	remaining activity at 10 µM ([3]; HG5LN; read-out: zfPXR antagonism Min): 14%; IC50 [3, 9]: 0.64 ± 0.03 µM
CCCC1COC(Cn2cncn2)(c2ccc(Cl)cc2Cl)O1 (stereo not drawn) [Propiconazole]	13 ± 1.5	58	1000 ± 100	33	–
CC(C)(C)C(O)(CCc1ccc(Cl)cc1)Cn1cncn1 (stereo not drawn) [Tebuconazole]	6.8 ± 0.4	71	–	–	IC50 [3]: 24 ± 4.3 µM; remaining activity at 10 µM [3, 7]: 62%
c1ccc2[nH]c(-c3cscn3)nc2c1 [Thiabendazole]	–	–	–	–	IC50 [3, 9]: 10 ± 0.7 µM
COP(=S)(OC)Oc1c(Cl)cc(C)cc1Cl [Tolclofos-methyl]	11 ± 0.3	59	2500 ± 100	88	–
CC1(C)C(C(Cl)Cl)C2(Cl)C(Cl)C(Cl)C1(Cl)C2(Cl)Cl (stereo not drawn) [Toxaphene]	0.75 ± 0.03	–	150 ± 10	–	hPXR agonism Max [1]: 89%
ClC1=C(Cl)[C@]2(Cl)[C@H]3[C@H]([C@H](Cl)C(Cl)[C@@H]3Cl)[C@@]1(Cl)C2(Cl)Cl (stereo partly drawn) [Trans-nonachlor]	–	70	–	–	EC50 [1, 8]: 5.3 ± 0.2 µM; EC50 [2, 5]: 29000 ± 5500 nM; zfPXR agonism Max ([2]; HG5LN-zfPXR, maximal activity at 10 µM, % of maximal induced by 1 µM clotrimazole, DMSO 28 ± 1.7): 43%
CCCOC/C(=N\c1ccc(Cl)cc1C(F)(F)F)n1ccnc1 [Triflurnizole]	21 ± 14	–	6000 ± 800	48	–
